Columns and labels:
[1] = Cytotoxic activity of compound against MEL-28 (Human melanoma) cell line; format: functional; details: SK-MEL-28
HT-29 = experiment: Cytotoxic activity of compound against HT-29 (Human colon carcinoma) cell line; format: functional, cell-based
A549 = experiment: Cytotoxic activity against A-549 (Human lung carcinoma) cell line; format: functional, cell-based

Compound	IC50 [1]	IC50 (HT-29)	IC50 (A549)
Cc1cnc2c(c1)C(=O)c1ncc(C)cc1C2=O	40 nM	420 nM	40 nM
Cc1ccnc2c1C(=O)c1nccc(Cl)c1C2=O	190 nM	1930 nM	190 nM
COc1cccc2c1C(=O)c1c(O)c3c(c(O)c1C2=O)C[C@@](O)(C(=O)CO)C[C@@H]3O[C@H]1C[C@H](N)[C@H](O)[C@H](C)O1 [DOXORUBICIN]	30 nM	90 nM	10 nM
Cc1ccnc2c1C(=O)c1nccc(N(C)C)c1C2=O	370 nM	930 nM	370 nM
O=C1c2cccnc2C(=O)c2cccnc21	4800 nM	4800 nM	4800 nM
CCc1c(C)cnc2c1C(=O)c1c(ncc(C)c1CC)C2=O	8500 nM	8500 nM	8500 nM
Cc1cnc2c(c1)C(=O)c1cc(C)cnc1C2=O	210 nM	500 nM	210 nM
CCc1c(C)cnc2c1C(=O)c1ncc(C)c(CC)c1C2=O	3400 nM	3400 nM	3400 nM
O=C1c2nccc(-c3ccccc3[N+](=O)[O-])c2C(=O)c2nccc(Cl)c21	30 nM	270 nM	30 nM
Cc1ccnc2c1C(=O)c1nc3c(cc1C2=O)CCCC3	18000 nM	18000 nM	4490 nM
Cc1ccnc2c1C(=O)c1nccc(C)c1C2=O	1000 nM	1000 nM	500 nM
CCc1cnc2c(c1)C(=O)c1cc(CC)cnc1C2=O	790 nM	1880 nM	450 nM
O=C1c2nccc(-c3ccccc3[N+](=O)[O-])c2C(=O)c2nccc(O)c21	7200 nM	7200 nM	7200 nM
Cc1ccnc2c1C(=O)c1c(C)ccnc1C2=O	2100 nM	2100 nM	2100 nM
Cc1cnc2c(c1)C(=O)c1nccc(Cl)c1C2=O	30 nM	40 nM	30 nM
O=C1c2cccnc2C(=O)c2ncccc21	4800 nM	5700 nM	4800 nM
CCc1cnc2c(c1)C(=O)c1ncc(CC)cc1C2=O	380 nM	1880 nM	190 nM
Cc1cc[n+](N(C)C)c2c1C(=O)c1nccc(Cl)c1C2=O	330 nM	1930 nM	330 nM
